Columns and labels:
Type in all cases: biochemical
Parameters in all cases: from tissue; host or cells: mouse brain membrane fraction
Conditions in all cases: Table 2, mouse proteome, 30 min preincubation at 37° C.
[1] = molecular target: T1, FAAH (Mus musculus, UniProt O08914); test: In vitro competitive activity-based protein profiling (FP-Rh), mouse FAAH
T1 sequence (O08914 1-579): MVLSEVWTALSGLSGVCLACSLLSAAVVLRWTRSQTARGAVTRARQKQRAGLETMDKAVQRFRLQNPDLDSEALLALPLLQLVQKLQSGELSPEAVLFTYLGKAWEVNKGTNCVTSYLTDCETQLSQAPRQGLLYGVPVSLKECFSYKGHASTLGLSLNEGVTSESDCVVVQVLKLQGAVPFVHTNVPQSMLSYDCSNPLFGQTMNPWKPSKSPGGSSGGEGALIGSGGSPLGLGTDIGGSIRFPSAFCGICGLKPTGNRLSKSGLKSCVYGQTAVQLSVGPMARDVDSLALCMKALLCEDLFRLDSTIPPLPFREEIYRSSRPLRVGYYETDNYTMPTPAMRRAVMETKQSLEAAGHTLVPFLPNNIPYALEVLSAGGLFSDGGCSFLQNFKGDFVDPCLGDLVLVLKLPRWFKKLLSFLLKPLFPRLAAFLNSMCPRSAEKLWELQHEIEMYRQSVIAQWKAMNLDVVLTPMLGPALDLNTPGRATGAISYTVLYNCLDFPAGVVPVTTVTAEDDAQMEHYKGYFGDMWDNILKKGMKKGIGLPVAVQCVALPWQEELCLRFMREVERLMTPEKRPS
Experimental: (§1) In Vitro Competitive Activity-Based Protein Profiling.
(§2) Proteomes (mouse brain membrane fraction or cell lysates) (50 μL, 1.0 mg/ml total protein concentration) were preincubated with varying concentrations of inhibitors at 37° C. After 30 min, FP-Rh (1.0 μL, 50 μM in DMSO) was added and the mixture was incubated for another 30 min at 37° C. Reactions were quenched with SDS loading buffer (50 μL—4×) and run on SDS-PAGE.

[2] = molecular target: T2, ABHD6 (Mus musculus, UniProt Q8R2Y0); test: In vitro competitive activity-based protein profiling (FP-Rh), mouse ABHD6
T2 sequence (Q8R2Y0 1-336): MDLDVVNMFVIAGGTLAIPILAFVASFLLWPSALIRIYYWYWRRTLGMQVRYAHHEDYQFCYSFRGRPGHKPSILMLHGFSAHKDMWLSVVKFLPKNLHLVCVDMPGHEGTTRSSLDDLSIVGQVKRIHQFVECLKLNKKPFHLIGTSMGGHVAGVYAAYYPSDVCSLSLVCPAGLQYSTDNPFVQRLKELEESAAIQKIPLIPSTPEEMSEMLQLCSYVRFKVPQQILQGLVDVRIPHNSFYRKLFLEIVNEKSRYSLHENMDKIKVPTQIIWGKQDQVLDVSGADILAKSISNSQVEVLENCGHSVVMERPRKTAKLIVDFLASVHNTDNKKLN
Experimental: as §1, §2

[3] = molecular target: T3, MAGL (Mus musculus, UniProt O35678); test: In vitro competitive activity-based protein profiling (FP-Rh), mouse MAGL
T3 sequence (O35678 1-303): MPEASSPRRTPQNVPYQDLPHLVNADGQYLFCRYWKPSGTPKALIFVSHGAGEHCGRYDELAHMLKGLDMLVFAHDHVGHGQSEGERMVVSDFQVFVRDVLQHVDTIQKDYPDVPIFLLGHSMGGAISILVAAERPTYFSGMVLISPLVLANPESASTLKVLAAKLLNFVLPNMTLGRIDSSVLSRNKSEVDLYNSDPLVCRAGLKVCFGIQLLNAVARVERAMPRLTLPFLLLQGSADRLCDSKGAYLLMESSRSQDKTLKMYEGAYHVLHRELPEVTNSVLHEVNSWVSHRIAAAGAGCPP
Experimental: as §1, §2

Row | SMILES | IC50 [1] [nM] | IC50 [2] [nM] | IC50 [3] [nM]
1 | O=C(ON1C(=O)CCC1=O)N1CCN(Cc2ccc(Br)cc2N2CCOCC2)CC1 [Example 66, 2,5-Dioxopyrrolidin-1-yl 4-(4-bromo-2-morpholinobenzyl)piperazine-1-carboxylate] | 1000 to 10000 | 1000 to 10000 | < 100
2 | COc1cc(N2CCOCC2)ccc1CN1CCN(C(=O)ON2C(=O)CCC2=O)CC1 [Example 67, 2,5-Dioxopyrrolidin-1-yl 4-(2-methoxy-4-morpholinobenzyl)piperazine-1-carboxylate] | 1000 to 10000 | 1000 to 10000 | 1000 to 10000
3 | Cc1cc(N2CCCC2)ccc1CN1CCN(C(=O)ON2C(=O)CCC2=O)CC1 [Example 68, 2,5-Dioxopyrrolidin-1-yl 4-(2-methyl-4-(pyrrolidin-1-yl)benzyl)piperazine-1-carboxylate] | 1000 to 10000 | 100 to 1000 | 100 to 1000
4 | O=C(ON1C(=O)CCC1=O)N1CCN(Cc2ccc(Cl)cc2N2CCOCC2)CC1 [Example 69, 2,5-Dioxopyrrolidin-1-yl 4-(4-chloro-2-morpholinobenzyl)piperazine-1-carboxylate] | 1000 to 10000 | 100 to 1000 | < 100
5 | COc1ccc(CN2CCN(C(=O)ON3C(=O)CCC3=O)CC2)cc1 [Example 70, 2,5-Dioxopyrrolidin-1-yl 4-(4-methoxybenzyl)piperazine-1-carboxylate] | 1000 to 10000 | 1000 to 10000 | 1000 to 10000
6 | Cc1ccc(CN2CCN(C(=O)ON3C(=O)CCC3=O)CC2)cc1 [Example 71, 2,5-Dioxopyrrolidin-1-yl 4-(4-methylbenzyl)piperazine-1-carboxylate] | 1000 to 10000 | 1000 to 10000 | 100 to 1000
7 | O=C(ON1C(=O)CCC1=O)N1CCN(Cc2ccc(Cl)cc2N2CCCC2)CC1 [Example 74, 2,5-Dioxopyrrolidin-1-yl 4-(4-chloro-2-(pyrrolidin-1-yl)benzyl)piperazine-1-carboxylate] | > 10000 | 100 to 1000 | < 100
8 | O=C(ON1C(=O)CCC1=O)N1CCN(Cc2ccc(N3CCCC3)c(F)c2)CC1 [Example 75, 2,5-Dioxopyrrolidin-1-yl 4-(3-fluoro-4-(pyrrolidin-1-yl)benzyl)piperazine-1-carboxylate] | > 10000 | 1000 to 10000 | 100 to 1000
9 | O=C(ON1C(=O)CCC1=O)N1CCN(Cc2ccc(N3CCCC3)cc2Cl)CC1 [Example 78, 2,5-Dioxopyrrolidin-1-yl 4-(2-chloro-4-(pyrrolidin-1-yl)benzyl)piperazine-1-carboxylate] | 1000 to 10000 | < 100 | < 100
10 | O=C(ON1C(=O)CCC1=O)N1CCN(Cc2cccc(Cl)c2N2CCOCC2)CC1 [Example 82, 2,5-Dioxopyrrolidin-1-yl 4-{[3-chloro-2-(morpholin-4-yl)phenyl]methyl}piperazine-1-carboxylate] | > 10000 | 1000 to 10000 | 100 to 1000
11 | O=C(ON1C(=O)CCC1=O)N1CCN(Cc2cccc(N3CCOCC3)c2)CC1 [Example 83, 2,5-Dioxopyrrolidin-1-yl 4-(3-morpholinobenzyl)piperazine-1-carboxylate] | > 10000 | 100 to 1000 | 100 to 1000
12 | O=C(ON1C(=O)CCC1=O)N1CCN(Cc2ccc(Cl)cc2-n2cccn2)CC1 [Example 84, 2,5-Dioxopyrrolidin-1-yl 4-(4-chloro-2-(1H-pyrazol-1-yl)benzyl)piperazine-1-carboxylate] | > 10000 | 1000 to 10000 | 100 to 1000
13 | CC(=O)NC1CCN(c2cc(Cl)ccc2CN2CCN(C(=O)ON3C(=O)CCC3=O)CC2)C1 (stereo not drawn) [Example 85, 2,5-Dioxopyrrolidin-1-yl 4-(2-(3-acetamidopyrrolidin-1-yl)-4-chlorobenzyl)piperazine-1-carboxylate] | > 10000 | 1000 to 10000 | < 100
14 | O=C(ON1C(=O)CCC1=O)N1CCN(Cc2ccc(C(F)(F)F)cc2N2CCOCC2)CC1 [Example 91, 2,5-Dioxopyrrolidin-1-yl 4-{[2-(morpholin-4-yl)-4-(trifluoromethyl)phenyl]methyl}piperazine-1-carboxylate] | > 10000 | 100 to 1000 | < 100
15 | O=C(ON1C(=O)CCC1=O)N1CCN(Cc2cc(Cl)ccc2N2CCOCC2)CC1 [Example 92, 2,5-Dioxopyrrolidin-1-yl 4-{[5-chloro-2-(morpholin-4-yl)phenyl]methyl}piperazine-1-carboxylate] | > 10000 | 1000 to 10000 | 100 to 1000
16 | O=C(ON1C(=O)CCC1=O)N1CCN(Cc2cccc(F)c2N2CCOCC2)CC1 [Example 93, 2,5-dioxopyrrolidin-1-yl 4-{[3-fluoro-2-(morpholin-4-yl)phenyl]methyl}piperazine-1-carboxylate] | > 10000 | > 10000 | 100 to 1000
17 | O=C(ON1C(=O)CCC1=O)N1CCN(Cc2ccc(N3CCOCC3)cc2Cl)CC1 [Example 94, 2,5-Dioxopyrrolidin-1-yl 4-(2-chloro-4-morpholinobenzyl)piperazine-1-carboxylate] | > 10000 | 1000 to 10000 | 1000 to 10000
18 | O=C(ON1C(=O)CCC1=O)N1CCN(Cc2ccc(Cl)cc2-n2cc(Cl)cn2)CC1 [Example 95, 2,5-Dioxopyrrolidin-1-yl 4-(4-chloro-2-(4-chloro-1H-pyrazol-1-yl)benzyl)piperazine-1-carboxylate] | > 10000 | 100 to 1000 | < 100
19 | O=C(ON1C(=O)CCC1=O)N1CCN(Cc2c(Cl)cccc2N2CCCC2)CC1 [Example 97, 2,5-Dioxopyrrolidin-1-yl 4-{[2-chloro-6-(pyrrolidin-1-yl)phenyl]methyl}piperazine-1-carboxylate] | > 10000 | 100 to 1000 | 1000 to 10000
20 | O=C(ON1C(=O)CCC1=O)N1CCN(Cc2cc(Cl)ccc2N2CCCC2)CC1 [Example 98, 2,5-Dioxopyrrolidin-1-yl 4-{[5-chloro-2-(pyrrolidin-1-yl)phenyl]methyl}piperazine-1-carboxylate] | > 10000 | 100 to 1000 | < 100
21 | O=C(ON1C(=O)CCC1=O)N1CCN(Cc2ccc(N3CCOCC3)c(Cl)c2)CC1 [Example 101, 2,5-dioxopyrrolidin-1-yl 4-(3-chloro-4-morpholinobenzyl)piperazine-1-carboxylate] | > 10000 | 100 to 1000 | 1000 to 10000
22 | O=C(ON1C(=O)CCC1=O)N1CCN(Cc2ccc(N3CCCC3)cc2OC(F)(F)F)CC1 [Example 104, 2,5-Dioxopyrrolidin-1-yl 4-{[4-(pyrrolidin-1-yl)-2-(trifluoromethoxy)phenyl]methyl}piperazine-1-carboxylate] | > 10000 | 100 to 1000 | 100 to 1000
23 | O=C(ON1C(=O)CCC1=O)N1CCN(Cc2cccc(Cl)c2N2CCCC2)CC1 [Example 106, 2,5-Dioxopyrrolidin-1-yl 4-{[3-chloro-2-(pyrrolidin-1-yl)phenyl]methyl}piperazine-1-carboxylate] | > 10000 | 1000 to 10000 | < 100
24 | O=C(ON1C(=O)CCC1=O)N1CCN(Cc2cccc(F)c2N2CCCC2)CC1 [Example 107, 2,5-Dioxopyrrolidin-1-yl 4-{[3-fluoro-2-(pyrrolidin-1-yl)phenyl]methyl}piperazine-1-carboxylate] | > 10000 | 100 to 1000 | < 100
25 | O=C(ON1C(=O)CCC1=O)N1CCN(Cc2ccc(-n3cccn3)c(F)c2)CC1 [Example 108, 2,5-Dioxopyrrolidin-1-yl 4-(3-fluoro-4-(1H-pyrazol-1-yl)benzyl)piperazine-1-carboxylate] | > 10000 | 1000 to 10000 | 1000 to 10000

Reference: US9567302B2, “Carbamate compounds and of making and using same” (Abide Therapeutics, Inc., priority 2012, dated 2017)
